In one data set the test system is T. brucei Squib 427. Briefly: In vitro drug susceptibility, T. brucei Squib 427 (resazurin). Format: cell-based, Trypanosoma brucei brucei. The settings on record: Trypanosoma brucei. The protocol:
(§1) All trypanosome strains were cultured in the standard HMI-9 medium supplemented with 10% fetal bovine serum (FBS) at 37° C. in a 5% CO2 atmosphere.
For orientation: Alamar Blue is a resazurin reagent that responds to reducing activity.

Data set [1] has as its system T. b. rhodesiense STIB-900. Description: In vitro drug susceptibility, T. b. rhodesiense STIB-900 (resazurin). Format: cell-based, Trypanosoma brucei rhodesiense. To be noted: Trypanosoma brucei, RHODESIENSE
The protocol: as §1

Data set [2] can be described thus: Cytotoxicity against MRC-5 fibroblasts. To be noted: human, MRC-5 fibroblasts, cytotoxicity. How it is done:
Cytotoxicity was assayed against MRC-5 fibroblasts. Results are depicted in Tables 4 and 5.

Data set [3] relates to T. cruzi Tulahuen CL2 β galactosidase strain. Briefly: T. cruzi Tulahuen CL2 β galactosidase strain on MRC-5SV2 cells (CPRG). The settings on record: Trypanosoma cruzi, TULAHUEN, MRC-5 SV2. Format: cell-based, Trypanosoma cruzi. How it is done:
All cultures and assays were conducted at 37° C./5% CO2. […] The results were expressed as % reduction in parasite burdens compared to control wells from which an EC50 was calculated.

Setting [4] is: read-out: T. brucei brucei EC50, Table 1, average of 2-4 independent determinations.
Where [5] appears, read: Table 2, average of 2-3 independent replicates.

Read-outs that look alike come from different tables or passages of the source. Bounds are passed on as bounds.

Regarding `COc1cc(-c2cn([C@@H]3O[C@H](CO)C[C@H]3O)c3ncnc(N)c23)ccc1Cl` [FH10649, 4-amino-5-(3-methoxy-4-chlorophenyl)-N7-(3′-deoxy-β-D-ribofuranosyl)-pyrrolo[2,3-d]pyrimidine], the melting point (usually the temperature of the solid-liquid transition) came to 208 °C. Also, the EC50 (in general, the midpoint of the concentration-response curve) in the data set with T. brucei Squib 427 (setting [4]) was found to be 2.01 µM. Besides, in data set [1] (read-out: T. brucei rhod. EC50), the EC50 was determined as 0.54 µM. Also, in data set [2] (MRC-5 EC50, Table 1), a half-maximal effect (EC50) was put at 17.2 µM. This molecule returned an EC50 in data set [2] (MRC-5 EC50, Table 2) of 17.2 µM. In data set [3] (setting [5]), this molecule yielded an EC50 of 0.06 µM.

The molecule `Cc1cc(-c2cn([C@@H]3O[C@H](CO)C[C@H]3O)c3ncnc(N)c23)ccc1Cl` [FH10648, 4-amino-5-(3-methyl-4-chlorophenyl)-N7-(3′-deoxy-β-D-ribofuranosyl)-pyrrolo[2,3-d]pyrimidine] came in with a melting point of 125 °C. Also, in the data set on T. brucei Squib 427 (setting [4]), the EC50 stood at 6.4 µM. Further, the EC50 in data set [1] (read-out: T. brucei rhod. EC50) came out at 2.09 µM. In data set [2] (MRC-5 EC50, Table 1), this molecule came in with an EC50 of 16.7 µM. Moreover, the response in data set [2] (MRC-5 EC50, Table 2) was half-maximal at 16.7 µM (EC50). The EC50 in data set [3] (setting [5]) amounted to 0.21 µM.

`Nc1ncnc2c1c(/C=C/c1ccccc1)cn2[C@@H]1O[C@H](CO)C[C@H]1O` [FH10660, 4-amino-5-(E-styryl)-N7-(3′-deoxy-β-D-ribfuranosyl)-pyrrolo[2,3-d]pyrimidine] returned a melting point of 170 °C. Besides, in the data set on T. brucei Squib 427 (setting [4]), the 50% effective concentration (EC50) was determined as 1.76 µM. The EC50 in data set [1] (read-out: T. brucei rhod. EC50) was 0.17 µM. In data set [2] (MRC-5 EC50, Table 1), the EC50 stood at 49.4 µM. Further, the EC50 in data set [2] (MRC-5 EC50, Table 2) was found to be 49.4 µM. In data set [3] (setting [5]), this molecule yielded an EC50 of 6.28 µM.

Take `Nc1ncnc2c1c(-c1cc(Cl)cc(Cl)c1)cn2[C@@H]1O[C@H](CO)[C@@H](O)[C@H]1O` [FH8460, 4-amino-5-(3,5-dichlorophenyl)-N7-(β-D-ribofuranosyl)-pyrrolo[2,3-d]pyrimidine]: the melting point was 219 °C. The EC50 in the data set on T. brucei Squib 427 (read-out: EC50 against T. brucei) is under 10 µM. Further, the EC50 in the data set with T. brucei Squib 427 (read-out: T.b. brucei EC50, Table 4, average of 2-6 independent determinations) is 8.17 µM. For the same molecule, the EC50 in data set [1] (read-out: T.b. rhod. EC50) was found to be 3.66 µM. In data set [2] (MRC-5 EC50, Table 4), this molecule had an EC50 of over 64 µM. In data set [2] (MRC-5 EC50, Table 5), this molecule registered an EC50 of over 64 µM. Moreover, a half-maximal effect in data set [3] (Table 5, average of 2-4 independent replicates) (EC50) was put at 1.72 µM.

`Nc1ncnc2c1c(C(F)(F)F)cn2[C@@H]1O[C@H](CO)C[C@H]1O` [FH9526, 4-amino-5-trifluoromethyl-N7-(3′-deoxy-β-D-ribofuranosyl)-pyrrolo[2,3-d]pyrimidine] came in with a melting point of 167 °C. For the same molecule, the EC50 with T. brucei Squib 427 (setting [4]) was found to be 0.94 µM. Besides, the EC50 in data set [1] (read-out: T. brucei rhod. EC50) came out at 1.88 µM. Besides, in data set [2] (MRC-5 EC50, Table 1), the EC50 was found to be 0.66 µM. For the same molecule, in data set [2] (MRC-5 EC50, Table 2), the EC50 came to 0.66 µM. Also, the EC50 in data set [3] (setting [5]) came out at 2.33 µM.

In turn, `Nc1ncnc2c1c(Br)cn2[C@@H]1O[C@H](CSCCO)C[C@H]1O` [FH9591, 4-amino-5-bromo-N7-(3′-deoxy-5′-thio-ethan-2-ol-β-D-ribofuranosyl)-pyrrolo[2,3-d]pyrimidine] showed a melting point of 164 °C. Moreover, the EC50 with T. brucei Squib 427 (setting [4]) is 5.05 µM. The EC50 in data set [1] (read-out: T. brucei rhod. EC50) amounted to 0.71 µM. Also, the EC50 in data set [2] (MRC-5 EC50, Table 1) amounted to 26.5 µM. In data set [2] (MRC-5 EC50, Table 2), this molecule had an EC50 of 26.5 µM. In data set [3] (setting [5]), this molecule showed a concentration giving a half-maximal response (EC50) of 33.8 µM.

For the molecule `Nc1ncnc2c1c(-c1ccc([N+](=O)[O-])cc1)cn2[C@@H]1O[C@H](CO)C[C@H]1O` [FH9582, 4-amino-5-(4-nitrophenyl)-N7-(3′-deoxy-β-D-ribofuranosyl)-pyrrolo[2,3-d]pyrimidine], the melting point is 254 °C (dec.). Further, the EC50 in the data set with T. brucei Squib 427 (setting [4]) stood at 2.1 µM. For the same molecule, in data set [1] (read-out: T. brucei rhod. EC50), the EC50 worked out at 0.32 µM. In addition, the EC50 in data set [2] (MRC-5 EC50, Table 1) was over 64 µM. In data set [2] (MRC-5 EC50, Table 2), this molecule displayed a concentration for a half-maximal effect (EC50) of over 64 µM. Moreover, the EC50 in data set [3] (setting [5]) was 1.2 µM.

`CCc1ccc(-c2cn([C@@H]3O[C@H](CO)C[C@H]3O)c3ncnc(N)c23)cc1` [FH10647] yielded a melting point of 114 °C. In the data set on T. brucei Squib 427 (setting [4]), the EC50 was 7.58 µM. In addition, the EC50 in data set [1] (read-out: T. brucei rhod. EC50) was determined as 1.5 µM. Also, in data set [2] (MRC-5 EC50, Table 1), the EC50 is 18.4 µM. This molecule also gave an EC50 in data set [2] (MRC-5 EC50, Table 2) of 18.4 µM. Also, the EC50 in data set [3] (setting [5]) was 1.04 µM.

Molecule `Cc1ccc(-c2cn([C@@H]3O[C@H](CO)C[C@H]3O)c3ncnc(N)c23)cc1Cl` [FH10644, 4-amino-5-(3-chloro-4-methylphenyl)-N7-(3′-deoxy-β-D-ribofuranosyl)-pyrrolo[2,3-d]pyrimidine] yielded a melting point of 135 °C. In addition, in the data set with T. brucei Squib 427 (setting [4]), the EC50 amounted to 4.74 µM. The EC50 in data set [1] (read-out: T. brucei rhod. EC50) was determined as 5.99 µM. The same molecule registered an EC50 in data set [2] (MRC-5 EC50, Table 1) of 17.9 µM. Moreover, in data set [2] (MRC-5 EC50, Table 2), the EC50 worked out at 17.9 µM. In addition, the EC50 in data set [3] (setting [5]) turned out to be 0.27 µM.

Source of the values: patent publication US11072628B2, “Nucleoside analogues for the treatment of parasitic infections” (UNIVERSITEIT GENT, priority 2017, dated 2021).
